#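 Values below derive from 48-hour exposures of cells grown in 96-well plates, with endpoints linearly interpolated between the two concentrations bracketing the appropriate inhibition level. At the GI50, growth is halved.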 The source made the active and inactive calls. No stated cut-off is given here; in the data, active = GI50 up to about 1.1 µM and inactive = higher.
# What was measured:
# Experiment in all cases: inhibition of tumour cell growth, NCI panel, 48 h
# UACC-62 = system: UACC-62
# HT-29 = system: HT-29
# SF-268 = system: SF-268
# SNB-75 = system: SNB-75
# MDA-MB-435 = system: MDA-MB-435
# NCI-H460 = system: NCI-H460
# LOX IMVI = system: LOX IMVI
# SF-295 = system: SF-295
# M14 = system: M14
# OVCAR-5 = system: OVCAR-5
# PC-3 = system: PC-3
# T47D = system: T47D
# SK-MEL-28 = system: SK-MEL-28
# HCT-15 = system: HCT-15
# SK-MEL-2 = system: SK-MEL-2
# A549 = system: A549
# HCT-116 = system: HCT-116
# HCC 2998 = system: HCC 2998
# SK-OV-3 = system: SK-OV-3
# SW-620 = system: SW-620
# SR = system: SR
# Malme-3M = system: Malme-3M
# CAKI-1 = system: CAKI-1
# TK-10 = system: TK-10
# HOP-92 = system: HOP-92
# NCI/ADR-RES = system: NCI/ADR-RES
# KM12 = system: KM12
# NCI-H226 = system: NCI-H226
# SF-539 = system: SF-539
# RXF 393 = system: RXF 393
# OVCAR-4 = system: OVCAR-4
# DU-145 = system: DU-145
# EKVX = system: EKVX
# NCI-H522 = system: NCI-H522
# A498 = system: A498
# HL-60 = system: HL-60
# HOP-62 = system: HOP-62
# MDA-MB-231 = system: MDA-MB-231
# ACHN = system: ACHN
# OVCAR-3 = system: OVCAR-3
# MCF7 = system: MCF7
# UACC-257 = system: UACC-257
# COLO 205 = system: COLO 205
# K562 = system: K562
# OVCAR-8 = system: OVCAR-8
# U-251 = system: U-251
# 786-0 = system: 786-0
# MDA-N = system: MDA-N
# Hs-578T = system: Hs-578T
# SN12C = system: SN12C
# SK-MEL-5 = system: SK-MEL-5
# NCI-H23 = system: NCI-H23
# UO-31 = system: UO-31
# MOLT-4 = system: MOLT-4
# CCRF-CEM = system: CCRF-CEM
# RPMI-8226 = system: RPMI-8226
# IGROV-1 = system: IGROV-1
# SNB-19 = system: SNB-19
# BT-549 = system: BT-549
smiles,measurement,setting,value
O=C1OC(OC/C(Br)=C(/Br)COC2OC(=O)C(Cl)=C2Cl)C(Cl)=C1Cl (stereo not drawn),GI50,UACC-62,14 µM (inactive)
same,GI50,HT-29,4.93 µM (inactive)
same,GI50,SF-268,9.82 µM (inactive)
same,GI50,SNB-75,18.7 µM (inactive)
same,GI50,MDA-MB-435,9.71 µM (inactive)
same,GI50,NCI-H460,19.6 µM (inactive)
same,GI50,LOX IMVI,2.69 µM (inactive)
same,GI50,SF-295,16.1 µM (inactive)
same,GI50,M14,6.79 µM (inactive)
same,GI50,OVCAR-5,14.1 µM (inactive)
same,GI50,PC-3,15.8 µM (inactive)
same,GI50,T47D,9.95 µM (inactive)
same,GI50,SK-MEL-28,8.51 µM (inactive)
same,GI50,HCT-15,9.29 µM
same,GI50,SK-MEL-2,26.2 µM (inactive)
same,GI50,A549,22.1 µM (inactive)
same,GI50,HCT-116,3.13 µM (inactive)
same,GI50,HCC 2998,16.7 µM (inactive)
same,GI50,SK-OV-3,26.9 µM (inactive)
same,GI50,SW-620,2.69 µM (inactive)
same,GI50,SR,0.724 µM (active)
same,GI50,Malme-3M,7.57 µM (inactive)
same,GI50,CAKI-1,3.15 µM (inactive)
same,GI50,TK-10,13.5 µM (inactive)
same,GI50,HOP-92,9.4 µM (inactive)
same,GI50,NCI/ADR-RES,6.7 µM (inactive)
same,GI50,KM12,8.75 µM (inactive)
same,GI50,NCI-H226,26.2 µM (inactive)
same,GI50,SF-539,21.8 µM (inactive)
same,GI50,RXF 393,5.09 µM (inactive)
same,GI50,OVCAR-4,7.6 µM (inactive)
same,GI50,DU-145,16.1 µM (inactive)
same,GI50,EKVX,16.1 µM (inactive)
same,GI50,NCI-H522,2.14 µM (inactive)
same,GI50,A498,21.9 µM (inactive)
same,GI50,HL-60,1.71 µM (inactive)
same,GI50,HOP-62,11.7 µM (inactive)
same,GI50,MDA-MB-231,7.69 µM (inactive)
same,GI50,ACHN,10.4 µM (inactive)
same,GI50,OVCAR-3,4.88 µM (inactive)
same,GI50,MCF7,12.9 µM (inactive)
same,GI50,UACC-257,12.1 µM (inactive)
same,GI50,COLO 205,4.29 µM (inactive)
same,GI50,K562,2.07 µM (inactive)
same,GI50,OVCAR-8,6.93 µM (inactive)
same,GI50,U-251,7.6 µM (inactive)
same,GI50,786-0,5.82 µM (inactive)
same,GI50,MDA-N,8.04 µM (inactive)
same,GI50,Hs-578T,13 µM (inactive)
same,GI50,SN12C,9.1 µM (inactive)
same,GI50,SK-MEL-5,13.4 µM (inactive)
same,GI50,NCI-H23,4.21 µM (inactive)
same,GI50,UO-31,6.31 µM (inactive)
same,GI50,MOLT-4,2.26 µM (inactive)
same,GI50,CCRF-CEM,1.71 µM (inactive)
same,GI50,RPMI-8226,1.68 µM (inactive)
same,GI50,IGROV-1,13.7 µM (inactive)
same,GI50,SNB-19,18.4 µM (inactive)
O=C(O)C(C1NCCS1)N1Cc2ccccc2C1 (stereo not drawn),GI50,UACC-62,> 100 µM (inactive)
same,GI50,HT-29,> 100 µM (inactive)
same,GI50,SNB-75,> 100 µM (inactive)
same,GI50,MDA-MB-435,> 100 µM (inactive)
same,GI50,NCI-H460,> 100 µM (inactive)
same,GI50,LOX IMVI,> 100 µM (inactive)
same,GI50,SF-295,> 100 µM (inactive)
same,GI50,M14,> 100 µM (inactive)
same,GI50,OVCAR-5,> 100 µM (inactive)
same,GI50,PC-3,> 100 µM (inactive)
same,GI50,T47D,> 100 µM (inactive)
same,GI50,SK-MEL-28,> 100 µM (inactive)
same,GI50,HCT-15,> 100 µM
same,GI50,SK-MEL-2,> 100 µM (inactive)
same,GI50,A549,> 100 µM (inactive)
same,GI50,HCT-116,> 100 µM (inactive)
same,GI50,SK-OV-3,> 100 µM (inactive)
same,GI50,SW-620,> 100 µM (inactive)
same,GI50,SR,> 100 µM (inactive)
same,GI50,Malme-3M,> 100 µM (inactive)
same,GI50,CAKI-1,> 100 µM (inactive)
same,GI50,TK-10,> 100 µM (inactive)
same,GI50,HOP-92,> 100 µM (inactive)
same,GI50,NCI/ADR-RES,> 100 µM (inactive)
same,GI50,KM12,> 100 µM (inactive)
same,GI50,NCI-H226,> 100 µM (inactive)
same,GI50,SF-539,> 100 µM (inactive)
same,GI50,RXF 393,> 100 µM (inactive)
same,GI50,OVCAR-4,> 100 µM (inactive)
same,GI50,DU-145,> 100 µM (inactive)
same,GI50,EKVX,> 100 µM (inactive)
same,GI50,A498,> 100 µM (inactive)
same,GI50,HL-60,> 100 µM (inactive)
same,GI50,HOP-62,> 100 µM (inactive)
same,GI50,MDA-MB-231,> 100 µM (inactive)
same,GI50,ACHN,> 100 µM (inactive)
same,GI50,OVCAR-3,> 100 µM (inactive)
same,GI50,BT-549,> 100 µM (inactive)
same,GI50,MCF7,> 100 µM (inactive)
same,GI50,UACC-257,> 100 µM (inactive)
same,GI50,COLO 205,> 100 µM (inactive)
same,GI50,K562,> 100 µM (inactive)
same,GI50,OVCAR-8,> 100 µM (inactive)
same,GI50,U-251,> 100 µM (inactive)
same,GI50,786-0,> 100 µM (inactive)
same,GI50,MDA-N,> 100 µM (inactive)
same,GI50,SN12C,> 100 µM (inactive)
same,GI50,SK-MEL-5,> 100 µM (inactive)
same,GI50,NCI-H23,> 100 µM (inactive)
same,GI50,UO-31,> 100 µM (inactive)
same,GI50,MOLT-4,> 100 µM (inactive)
same,GI50,CCRF-CEM,> 100 µM (inactive)
same,GI50,RPMI-8226,> 100 µM (inactive)
same,GI50,IGROV-1,> 100 µM (inactive)
same,GI50,SNB-19,> 100 µM (inactive)
COc1cc(S(=O)(=O)Nc2nc(-c3ccc(N4C(=O)/C(=C/c5ccccc5[N+](=O)[O-])N=C4c4ccccc4)cc3)cs2)ccc1Cl,GI50,UACC-62,27 µM (inactive)
same,GI50,HT-29,> 100 µM (inactive)
same,GI50,SF-268,22.6 µM (inactive)
same,GI50,SNB-75,> 100 µM (inactive)
same,GI50,MDA-MB-435,67.1 µM (inactive)
same,GI50,NCI-H460,> 100 µM (inactive)
same,GI50,LOX IMVI,50.2 µM (inactive)
same,GI50,SF-295,> 100 µM (inactive)
same,GI50,M14,> 100 µM (inactive)
same,GI50,OVCAR-5,> 100 µM (inactive)
same,GI50,PC-3,47 µM (inactive)
same,GI50,T47D,55.5 µM (inactive)
same,GI50,SK-MEL-28,> 100 µM (inactive)
same,GI50,HCT-15,> 100 µM
same,GI50,SK-MEL-2,33.3 µM (inactive)
same,GI50,A549,> 100 µM (inactive)
same,GI50,HCT-116,74 µM (inactive)
same,GI50,SK-OV-3,95.7 µM (inactive)
same,GI50,SW-620,> 100 µM (inactive)
same,GI50,SR,34.3 µM (inactive)
same,GI50,Malme-3M,> 100 µM (inactive)
same,GI50,CAKI-1,> 100 µM (inactive)
same,GI50,TK-10,> 100 µM (inactive)
same,GI50,HOP-92,88.3 µM (inactive)
same,GI50,NCI/ADR-RES,> 100 µM (inactive)
same,GI50,KM12,73.1 µM (inactive)
same,GI50,NCI-H226,> 100 µM (inactive)
same,GI50,SF-539,> 100 µM (inactive)
same,GI50,RXF 393,63.5 µM (inactive)
same,GI50,OVCAR-4,> 100 µM (inactive)
same,GI50,DU-145,> 100 µM (inactive)
same,GI50,NCI-H522,48.3 µM (inactive)
same,GI50,A498,> 100 µM (inactive)
same,GI50,HL-60,44.3 µM (inactive)
same,GI50,HOP-62,87.1 µM (inactive)
same,GI50,MDA-MB-231,19.9 µM (inactive)
same,GI50,ACHN,> 100 µM (inactive)
same,GI50,OVCAR-3,29.5 µM (inactive)
same,GI50,BT-549,20 µM (inactive)
same,GI50,MCF7,34.6 µM (inactive)
same,GI50,UACC-257,> 100 µM (inactive)
same,GI50,COLO 205,> 100 µM (inactive)
same,GI50,K562,61.5 µM (inactive)
same,GI50,OVCAR-8,> 100 µM (inactive)
same,GI50,U-251,46.6 µM (inactive)
same,GI50,786-0,> 100 µM (inactive)
same,GI50,MDA-N,> 100 µM (inactive)
same,GI50,SN12C,> 100 µM (inactive)
same,GI50,SK-MEL-5,48.9 µM (inactive)
same,GI50,NCI-H23,29.9 µM (inactive)
same,GI50,UO-31,> 100 µM (inactive)
same,GI50,MOLT-4,37.7 µM (inactive)
same,GI50,CCRF-CEM,> 100 µM (inactive)
same,GI50,IGROV-1,41.6 µM (inactive)
same,GI50,SNB-19,89.9 µM (inactive)
